These are literature values, as cited in patent publication US8226972B2, “Vaginal delivery of drugs” (FemmePharma Holding Company, Inc., priority 2001, dated 2012).

Like-named read-outs stand apart in the source and are kept apart here.

The test system of the data set is urge incontinence. As to conditions: cited from earlier work.
[1] abbreviates: oxybutynin solution delivered by catheter (Saito).

For `CCN(CC)CC#CCOC(=O)C(O)(c1ccccc1)C1CCCCC1` (stereo not shown) [oxybutynin], the side effects entry (intravesical administration (Brendler)) is “no side effects were observed”. For the same compound, for the setting “intravesical administration, eleven patients with persistent urge incontinence (Brendler)”, the “patients who reported improvement and became totally continent” value is “Ten out of eleven”. Also, under setting [1], the “effectiveness in urinary incontinence” value is on record as “effective” and the side effects entry is “did not experience side effects”.
